Experiments:
NET-1 [1] = assay: Ex vivo Western blot of NET-1 in tumour lysates of treated animals; design: species or system mice
Method: (§1) Western blotting (WB) was performed as previously described. Antibodies were obtained from Cell Signalling Technologies (London, UK) unless stated otherwise: GAPDH, beta-actin, p-Akt^S473, Akt, p-4EBP1^T37/46, p-S6^S240/244, S6, N-MYC (Merck Millipore, Watford, UK), NET-1 (mAbTechnologies, Stone Mountain, Georgia), anti-rabbit HRP, anti-mouse HRP. Blots were visualised with SuperSignal West Pico and Femto Chemiluminescent Substrate (Thermo Fisher Scientific, Loughborough, UK) and ChemiDoc XRS + System (BioRad, Watford, UK). Data were processed and band density analysed with ImageJ and Image Lab 6.0 (BioRad, Watford, UK).

mTORC1/2 [2] = assay: Western blot of mTORC1/2 substrates in Kelly and SK-N-BE(2)C cells; format: cell-based, human
Method: as §1

mTORC1/2 [3] = assay: Ex vivo IHC/Western blot of mTOR signalling in treated tumours; design: species or system mice; conditions: Kelly xenografts 25 mg/kg/day, 3 days
Method: as §1
Formalin-fixed (10% v/v) paraffin-embedded tumours were sectioned to a thickness of 5 µm. Tumour sections underwent heat-induced epitope retrieval with a citric acid based antigen unmasking solution (H3300, Vector Laboratories, Peterborough, UK). The primary NET-1 antibody (AMT-002, Alomone Labs, Jerusalem, Israel), p-S6^S240/244 and p-4EBP1^T37/46 were added and incubated overnight at 4 °C. Endogenous peroxidases were blocked (2% H2O2 in methanol, 10 min, RT) before incubation with a secondary HRP-conjugated antibody. For chromogen development, slides were processed using a diaminobenzidine (DAB)-peroxidase substrate kit (4 min, Immpact DAB, SK-4105, Vector Laboratories, Peterborough, UK). […]

NET-1 [4] = assay: Radiotracer cell uptake after AZD2014 pre-treatment, Kelly cells; format: cell-based, human; conditions: for increase of ^18F-mFBG uptake: vs untreated control
Method: (§2) To investigate potential changes in NET-1 function following an AZD2014-induced increase in protein expression, ^18F-mFBG and ^123I-mIBG cell uptake assays were performed in Kelly and SK-N-BE(2)C cells incubated with the drug (0–500 nM) for 24 and 72 h. […] Perhaps due to the already high expression of NET-1, increase in radiotracer uptake was less evident in SK-N-BE(2)C cells (39 ± 9% and 62 ± 5%, respectively). […].
(§3) To test the response of cell uptake using the mTOR1/2 inhibitor AZD2014 (0–500 nM) (vistusertib, Stratech Scientific, Ely, UK), a stock solution of the drug (10 mM) in dimethyl sulfoxide (DMSO, Sigma Aldrich, Gillingham, UK) was initially prepared and then diluted in culture medium to a final DMSO concentration of < 0.1%. Radiotracer uptake was assessed in cells 24 and 72 h after incubation with AZD2014. The uptake was normalised to cell viability as performed using the CellTiter-Glo assay (Promega, Southampton, UK). The data are expressed as the average of n = 3 independent experiments (performed in triplicate) ± SEM.

Kelly xenografts = assay: AZD2014 treatment of Kelly xenograft mice (body weight, tumour growth); format: in vivo; conditions: 25 mg/kg/day
Method: All studies were conducted in compliance with licenses issued under the UK Animals (Scientific Procedures) Act 1986 and approved by the Institute of Cancer Research Animal Welfare and Ethical Review Body (AWERB) according to the United Kingdom National Cancer Research Institute Guidelines for Animal Welfare in Cancer Research (project license PCC916B22, Animals in Science Regulation Unit, Home Office Science, London, UK)[65]. […]; 20–22 g) obtained from an in-house breeding colony were used in the studies. Animals were housed in a temperature-controlled facility with 12 h on–12 h off light cycle and provided water and laboratory rodent food ad libitum. Subcutaneous xenografts were generated by injection of either Kelly (5 × 10^6/0.1 mL PBS/Matrigel 30% v/v; BD Matrigel Matrix, BD Bioscience, San Jose, California, US) or SK-N-BE(2)C (1 × 10^6/0.1 mL PBS/Matrigel) into the lower flank. For the treatment studies, AZD2014 stock solution in DMSO was diluted in PEG400 to a final concentration of 2 mg/mL (10% DMSO maximum). When tumours reached ~ 100 mm^3 (calliper measurements using formula: Volume = (Width(2) × Length)/2), mice were treated daily, for a total of either 1, 3 or 7 days, by oral gavage with AZD2014 (20 or 25 mg/kg/day) or vehicle control. Mice were monitored daily for body weight or other adverse effects.

NET-1 [5] = target: T1, NET-1 (Homo sapiens, UniProt P23975); assay: Radiotracer cell uptake after AZD2014 pre-treatment, SK-N-BE(2)C cells; format: cell-based; conditions: for increase of ^18F-mFBG uptake: vs untreated control
T1 construct: SK-N-SH, SK-N-BE(2)C, Kelly, NBLS human NB cell lines; endogenous in cells; host or cells: SK-N-SH, SK-N-BE(2)C, Kelly, NBLS human neuroblastoma cell lines
T1 sequence (P23975 whole entry): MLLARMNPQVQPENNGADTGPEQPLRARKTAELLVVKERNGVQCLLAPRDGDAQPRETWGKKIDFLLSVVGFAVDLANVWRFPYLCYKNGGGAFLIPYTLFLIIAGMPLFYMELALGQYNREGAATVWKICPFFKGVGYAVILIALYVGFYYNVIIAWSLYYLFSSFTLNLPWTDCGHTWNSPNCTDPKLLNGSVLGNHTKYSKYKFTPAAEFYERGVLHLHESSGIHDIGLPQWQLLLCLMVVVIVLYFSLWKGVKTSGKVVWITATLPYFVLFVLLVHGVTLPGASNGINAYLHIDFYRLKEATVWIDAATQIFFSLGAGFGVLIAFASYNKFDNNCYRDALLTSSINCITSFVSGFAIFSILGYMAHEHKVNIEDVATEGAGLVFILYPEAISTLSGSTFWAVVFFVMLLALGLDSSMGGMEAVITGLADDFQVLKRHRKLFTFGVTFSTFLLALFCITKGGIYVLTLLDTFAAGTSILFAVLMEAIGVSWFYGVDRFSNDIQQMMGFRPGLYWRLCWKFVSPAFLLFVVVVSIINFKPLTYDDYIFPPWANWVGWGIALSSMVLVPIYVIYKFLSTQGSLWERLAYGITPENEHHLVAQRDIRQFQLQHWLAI
Method: as §2, §3

NET-1 [6] = assay: Western blot of total NET-1 protein in SK-N-BE(2)C cells after AZD2014; format: cell-based, human; conditions: seen at 24 h, maintained at 72 h
Method: Given the potential role of Akt in NET-1 protein synthesis and surface expression, we further looked at NET-1 protein levels following AZD2014 treatment. […] In Kelly cells, the WB analysis was not sensitive enough to detect and accurately quantify the inherently low expression of the target protein.
as §1

SK-N-BE(2)C cells = assay: Cell viability (CellTiter-Glo) after 72 h AZD2014, SK-N-BE(2)C; format: cell-based; conditions: Homo sapiens, read-out: GI50 (concentration that reduced cell viability by 50%)
Method: (§4) To assess the cellular response to mTORC1/2 inhibition, Kelly and SK-N-BE(2)C cell lines, both of which over-express MYCN protein (Fig. 1b), were incubated with AZD2014 (0 to 1 µM) for 72 h. […] Key substrates of AZD2014- induced mTORC1/2 inhibition were assessed by WB.
(§5) Supplementary Figure 5: NB cell viability after 72 h treatment with AZD2014 (0–1 µM) analysed by Celltiter Glo assay. Data presented as mean ± SEM, n ≥ 3 per group, performed in triplicate. Graph is generated using GraphPad Prism (v 8.4.1), https://www.graphpad.com.

Kelly cells = assay: Cell viability (CellTiter-Glo) after 72 h AZD2014, Kelly; format: cell-based; conditions: Homo sapiens, read-out: GI50 (concentration that reduced cell viability by 50%)
Method: as §4, §5

[7] = Biodistribution and PET statements pooled over Kelly and SK-N-BE(2)C xenograft-bearing mice; format: in vivo; conditions: ^123I-mIBG 24 h p.i.
Method: When the tumours reached approximately 100–200 mm^3, mice were anaesthetised with an isoflurane/O2 mixture (1.5–2.0% v/v) and intravenously injected with either ^18F-mFBG (~ 7.5 MBq) or ^123I-mIBG (~ 20 MBq). Mice were then imaged using an Albira PET/SPECT/CT scanner (Bruker, Coventry, UK). […] Acquisition, reconstruction and image analysis were performed as described previously. Following the final scan, the mice were sacrificed and the major organs were excised, weighed and their associated radioactivity was measured using a γ-counter. Biodistribution and image quantification were expressed as a percentage of injected dose per gram of tissue (%ID/g), whereby 1 cm^3 on PET acquisitions were assumed to equal 1 g (n ≥ 3 mice ± SD).

NET-1 [8] = target: T1, NET-1; assay: ^18F-mFBG / ^123I-mIBG uptake in NB cell lines with and without desipramine; format: cell-based; conditions: 1 h at 37 °C, rank among Kelly, SK-N-SH, NBLS
From the text: Figure 1 (a) Simplified radiosynthesis scheme of ^18F-mFBG by copper-mediated deborylation. (b) Total NET-1 protein expression in selected NB cell lines determined by Western blot. Full length blots are presented in Supplementary Figure WB1. […] Data are presented as mean ± SEM, n ≥ 2 per group, performed in triplicate. Graphs are generated using GraphPad Prism (v 8.4.1), https://www.graphpad.com.
For each cell line the cell-associated radioactivity was normalised to the number of cells and then each group was presented as a percentage of the signal acquired for SK-N-BE(2)C cells (mean of n = 3 independent experiments performed in triplicate ± SEM).

NB tumours = test system: NB tumours; design: method as in PMID 15490487, PMID 3181182, PMID 22700000; conditions: NB patients; cited from earlier work
[9] = Kelly and SK-N-BE(2)C, Western blot

CNC(=O)c1cccc(-c2ccc3c(N4CCOC[C@@H]4C)nc(N4CCOC[C@@H]4C)nc3n2)c1 [AZD2014]
NET-1 expression in tumour lysates, control vs treated (NET-1 [1]; Kelly, 25 mg/kg/day 3 days, p = 0.84, n = 2): no difference
NET-1 expression in tumour lysates (NET-1 [1]; SK-N-BE(2)C, 20 mg/kg/day 3 days, not significant (p = 0.07, n = 4)): increase
MYCN protein expression (mTORC1/2 [2]; [9]): not robustly reduced
phosphorylation of S6 and 4EBP1 (mTORC1/2 [2]; [9]): concentration dependent decrease
p-Akt^S473 inhibition (mTORC1/2 [2]; both cell lines, after 72 h incubation): not sustained
p-Akt^S473 (mTORC1/2 [2]; both cell lines, early time points (3–12 h)): concentration-dependent downregulation
mTORC1/2 inhibition in vivo (p-S6^S240/244, p-4EBP1^T37/46 IHC) (mTORC1/2 [3]): failed to inhibit
increase of ^18F-mFBG uptake (NET-1 [4]; 200 nM AZD2014, 72 h): 128 ± 23%
increase of ^18F-mFBG uptake (NET-1 [4]; 500 nM AZD2014, 72 h): 292 ± 27%
^123I-mIBG and ^18F-mFBG uptake (NET-1 [4]; AZD2014 0–500 nM, 24 h): concentration-dependent increase
body weight lost compared to the vehicle control (Kelly xenografts; oral gavage, 3 days post-treatment initiation): ~ 10%
tumour growth (Kelly xenografts; Kelly xenografts, n = 3, p < 0.0001): impeded
increase of ^18F-mFBG uptake (NET-1 [5]; 200 nM AZD2014, 72 h): 39 ± 9%
increase of ^18F-mFBG uptake (NET-1 [5]; 500 nM AZD2014, 72 h): 62 ± 5%
^123I-mIBG and ^18F-mFBG uptake (NET-1 [5]; AZD2014 0–500 nM, 24 h): concentration-dependent increase
total NET-1 protein expression (NET-1 [6]): prominent and persistent increase
GI50 (SK-N-BE(2)C cells): 307 nM
GI50 (Kelly cells): 476 nM

NC(N)=NCc1cccc(I)c1 [^123I-mIBG, meta-iodobenzylguanidine, reference compound]
Tumour-to-background ratios compared with ^18F-mFBG [7]: greater
cell-associated radioactivity, SK-N-BE(2)C (NET-1 [8]): greatest uptake
cell-associated radioactivity, Kelly (NET-1 [8]; SK-N-BE(2)C): least uptake

N=C(N)NCc1cccc([131I])c1 [^131I-mIBG, meta-iodobenzylguanidine]
clinical response (NB tumours): 0 to 57%
